# Experimental data reported in patent publication US20260215432A1, “ANTIMICROBIAL CONJUGATED OLIGOELECTROLYTES AND METHODS THEREOF” (National University of Singapore, priority 2023, published 2026).
# Tests used:
# [1] = tested on: M. abscesses (ATCC 19977); assay: MIC against mycobacterium in Middlebrook 7H9 broth; assay type: cell-based, M. abscessus
# Method: We also examined non-tuberculous mycobacteria (NTM). These are opportunistic pathogens that are rising in clinical significance due to their increasing prevalence and treatment difficulty. The membrane of Mycobacterium is inherently a greater antibiotic permeability barrier due to its high lipid content relative to other pathogens and long-tailed mycolic acids that contributed to its high lipophilic character. The antimicrobial activity of the TPP analogues were also evaluated against Mycobacterium in Middlebrook 7H9 broth.
# MRSA = assay: S. aureus murine wound infection model; assay type: in vivo, mice; conditions: 0.05 mg/kg, MRSA-inoculated mouse wound, 24 hours
# Method: To probe the potential of TPP-COEs as viable therapeutics, we assessed the efficacy of DM6P to treat bacterial infections in vivo. An S. aureus murine wound infection model was used due to prevalent clinical concerns associated with S. aureus skin and soft tissue infections (SSTIs). […] Relative to current clinical dosages of 4-6 mg/kg for daptomycin, the low concentrations required to achieve such activity in vivo and absence of bacterial regrowth after 24 hours underscores the potential for further developing TPP-COEs with improved activity and safety profiles.
# Animal experiments were approved by the Institutional Animal Care and Use Committee (IACUC), National University of Singapore (R20-1178) and carried out in line with procedures in the Guide for the Care and Use of Laboratory Animals (National Institutes of Health). C57BL6 mice (female, 18-20 g) were anaesthetized by ketamine and the hair at the back were shaved and removed. A 6 mm-diameter excisional wound was created on the back using a biopsy punch. Log phase MRSA (in 5 μl PBS) were inoculated onto the wound. A 3M tegaderm were used to cover the wound site from contamination. […] Significant levels were evaluated by a one-way ANOVA followed by a multiple comparison analysis of variance by a one-way Tukey test (Graphpad PRISM).
# [2] = phosphate-buffered saline; below 10 μg mL^−1 estimated by turbidimetric screening
# Method: The solubility of all the TPP derivatives was determined in phosphate-buffered saline (PBS) (Table S3).
structure (smiles),measurement,setting,value
COc1cc(/C=C/c2ccc(OCCCCCC[P+](c3ccccc3)(c3ccccc3)c3ccccc3)c(OC)c2)ccc1OCCCCCC[P+](c1ccccc1)(c1ccccc1)c1ccccc1.[I-].[I-] [DM6P],MIC M. abscesses,[1],8 µg/mL
same,reduction in bacterial load compared to the saline-treated group,MRSA,3.8 log fold
same,solubility in PBS,[2],108 µg/mL
